In series [1] the test system is rabbit blood platelets (platelet rich plasma), ADP-induced aggregation. The series can be described thus: inhibition of platelet aggregation in rabbit platelet rich plasma (in vitro), induced by ADP. The format is cell-based. The settings on record: Oryctolagus cuniculus, Platelet, rabbit PRP, ADP 10^-5 M. Put shortly: (§1)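 PRP from citrated rabbit carotid blood (1,000 rpm, 15 min) preincubated 1 min with test compound in saline before ADP or collagen is added. Aggregation followed by light transmission in an aggregometer; % inhibition derived from maximum aggregation with sample versus saline.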

Series [2] concerns rabbit blood platelets (platelet rich plasma), collagen-induced aggregation. The series can be described thus: inhibition of platelet aggregation in rabbit platelet rich plasma (in vitro), induced by collagen. The settings on record: Oryctolagus cuniculus, Platelet, rabbit PRP. It counts as cell-based. The gist of the method: as §1
The test system of series [3] is rabbit blood platelets (platelet rich plasma), thrombin-induced aggregation. The series can be described thus: inhibition of platelet aggregation in rabbit platelet rich plasma (in vitro), induced by thrombin. It counts as cell-based. To be noted: Oryctolagus cuniculus, rabbit PRP, read-out: percentage of inhibition, thrombin. As to the method: In this example, the inhibition of platelet aggregation in rabbit platelet rich plasma (in vitro) is tested.
The thus obtained blood is centrifuged at 1,000 rpm for 15 minutes to obtain platelet rich plasma (referred to as "PRP" hereinafter). The aggregation of blood platelets is observed using an aggregometer (made by Bryston Co.) and the degree of aggregation after the addition of aggregation promoting substances is measured by nephelometry, i.e., through increase in light transmission.
The PRP (0.9 ml) is placed in a silicon-coated cuvett of the aggregometer. Then, 0.05 ml of physiological saline solution containing various concentrations of test reagents or control reagents is added and the mixture is allowed to stand for one minute. Compounds promoting aggregation are then added and the absorbancy of the solution is measured and the percent inhibition of aggregation is calculated according to the following equation: [formula] C: Transmittancy showing the maximum percent aggregation by physiological saline solution
D: Transmittancy showing the maximum percent aggregation by sample
Test for the inhibition of platelet aggregation induced by ADP, collagen and thrombin.

The subject of series [4] is mice, death by ADP injection. The series can be described thus: prevention of death of mice by ADP addition (in vivo), oral administration. To be noted: oral; 100 mg/Kg; ADP i.v. after one hour. As to the method: (§2) In this example, prevention of death of mice by ADP addition (in vivo) is tested. It is shown that intravenous administration of a great amount of ADP to mice causes aggregated blood platelets to be captured in the pulmonary capillaries so that the mice die of respiratory distress.
The test is carried out according to Roba's method. [Eur. J. Pharmacol. 37, 265-274 (1976)]. Specifically, CMC solution (0.3%) and CMC suspension containing the test compound and control compounds are orally administered to mice in a ratio of 0.1 ml/10 g (body weight). After one hour, an aqueous solution of ADP (60 mg/ml) is injected into the tail vein in a volume of 0.1 ml/10 g (body weight) every 10 seconds and the mortality is calculated.

The test system of series [5] is mice, death by ADP injection. The series can be described thus: prevention of death of mice by ADP addition (in vivo), intravenous administration. The settings on record: 10 mg/Kg, ADP-Na ten minutes thereafter. As to the method: as §2
In order to check the effect by intravenous administration, physiological saline solution and physiological saline solution containing the test reagents (0.5 mg/ml) is injected into the tail vein in a volume of 0.2 ml/10 g (body weight). Ten minutes thereafter (10 mg/kg) ADP-Na is injected into the tail vein as in the oral test, and the mortality is calculated.

Series [6] can be described thus: acute toxicity, Behrens-Karber's method. The format is in vivo. To be noted: in vivo; mouse, oral. As to the method: In this example, the acute toxicity of compounds of the invention is determined by Behrens-Karber's method using, 5 male dd-strain for each group weighing 20±1 g. A 0.3% CMC suspension of the test compound (concentration of the test compound: 100 mg/ml) is then orally administered to each mouse.

In series [7] the test system is human platelet rich plasma, ADP-induced aggregation. The series can be described thus: inhibition of platelet aggregation in human platelet rich plasma, induced by ADP. It counts as cell-based. The settings on record: human PRP, read-out: percentage inhibition, ADP. The gist of the method: (§3)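 Human platelet-rich plasma (citrated blood, spun 1,000 rpm 15 min) preincubated 1 min with test compound in saline, then challenged with collagen or ADP. Aggregation followed by light transmission in an aggregometer; % inhibition from maximal aggregation versus saline control.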

The test system of series [8] is human platelet rich plasma, collagen-induced aggregation. The series can be described thus: inhibition of platelet aggregation in human platelet rich plasma, induced by collagen. To be noted: human PRP, read-out: percentage inhibition, collagen. The format is cell-based. Put shortly:
as §3

The nature of series [9]: solubility. It counts as physicochemical.

Here are results for one compound from patent US4705805A, “Antithrombotic agent” (priority 1978, dated 1987).

In brackets after ≈: the same amount, converted by molar mass. Where only a bound is given, the exact number is not on record here.

In the case of `O=C(c1ccccc1SSc1ccccc1C(=O)N1CCN(Cc2ccccc2)CC1)N1CCN(Cc2ccccc2)CC1` [Compound IV, 2,2'-dithiobis(N'-benzylbenzpiperazide)], the IC50 in series [1] and in [2] was 9.8 µg/mL (≈ 15.7 µM) throughout. Further, the inhibition at 3 µg/mL was 28% in [1] (3 μg/ml, read-out: percentage of inhibition, ADP); 7.6% in series [2] (3 μg/ml, read-out: percentage of inhibition, collagen); 31% in series [3] (3 μg/ml). Moreover, the inhibition at 10 µg/mL in series [1] (10 μg/ml, read-out: percentage of inhibition, ADP) came to 44.7%; in [2] (10 μg/ml, read-out: percentage of inhibition, collagen) it was 46.5%; in series [3] (10 μg/ml) it was 58%. The inhibition at 30 µg/mL is 83.3% in series [1] (30 μg/ml, read-out: percentage of inhibition, ADP); 100% in series [2] (30 μg/ml, read-out: percentage of inhibition, collagen); 84% in [3] (30 μg/ml); 0% in [7] (30 μg/ml); 12% in series [8] (30 μg/ml). In addition, the results for the Mortality in series [4] and in series [5] were 30% and 50%, respectively. The “Score (mortality)” value in [4] is recorded as 3/10; in series [5], 5/10. Also, in series [6], the LD50 is ≥ 4000 mg/kg. Also, the inhibition at 100 µg/mL came to 58% in series [7] (100 μg/ml) and 75% in series [8] (100 μg/ml). Besides, the “Solubility in ether, benzene, chloroform” value in series [9] (ether, benzene, chloroform, and the like) is recorded as “Insoluble”. For the same compound, in [9] (methanol, ethanol, and the like), the “Solubility in methanol, ethanol” value is “slightly soluble”. Moreover, the Solubility in water entry in series [9] (water, etc.) is “Readily soluble”.

One may read the IC50 as the concentration at which inhibition is half-maximal. A high value points to weaker potency. Broadly, the inhibition is how much of the control response was suppressed. What is called LD50 is the dose at which mortality reaches 50%. A lower LD50 goes with a more toxic substance.
